Entries after “also recorded” stand apart in the source; their conditions may differ.
How the values were obtained:
[1] = molecular target: binding of Raf-1 to Rb in U937 cells (Homo sapiens, UniProt P04049+P06400); assay: Immunoprecipitation-Western blot, serum stimulated U937 cells; settings: U937 cells serum stimulated 2 hours, 20 μM
Experimental: Lysate preparation, pmmunoprecipitation, and pestern plotting. Lysates from cells treated with different agents were prepared by NP-40 lysis as described earlier (Wang 1998). […] Physical interaction between proteins in vivo was analyzed by immunoprecipitation—Western blot analyses with 200 μg of lysate with 1 μg of the indicated antibody as previously described (Wang 1998). Polyclonal E2F1 and Cyclin D were obtained from Santa Cruz Biotechnology. Monoclonal Rb and Raf-1 were supplied by BD Transduction laboratories (San Jose, Calif.). Polyclonal antibodies to phospho-Rb (807,811) phospho-MEK1/2, MEK1/2, phospho-Erk1/2 and ERK1/2 were supplied by Cell Signaling (Danvers, Mass.).
U937 cells were serum starved for 48 hours and subsequently serum stimulated for 2 hours in the presence or absence of 20 μM of the compounds.

[2] = molecular target: binding of Raf-1 to GST Rb beads (Homo sapiens, UniProt P04049+P06400); assay: GST pull-down, U937 lysates; settings: 20 μM, asynchronous U937 lysates, western blotting
Experimental: First, 200 micrograms (μg) of U937 asynchronous lysates were pre-incubated with 10 μM of the indicated drugs or 1 μM of the Raf-1 peptide for 30 minutes at 4° C. Next, 200 μg of the U937 lysates were incubated with glutathione beads carrying an equal amount of the GST fusion proteins in 2001 of protein binding buffer (20 mM Tris [pH 7.5], 50 mM KCL, 0.5 mM EDTA, 1 mM dithiothreitol, 0.5% NP-40, 3 mg of bovine serum albumin/mL) at 4° C. for 2 h.
Asynchronous U937 lysates were incubated with GST-Rb beads in the presence or absence of the selected compounds or an 8 amino acid Raf-1 peptide and the binding of Raf-1 assessed by western blotting.

[3] = test system: Human aortic endothelial cells (HAECs); assay: Matrigel angiogenic tubule formation; assay type: cell-based; settings: 20 μM
Experimental: Matrigel assays. […] A total of 100 μl of thawed Matrigel was added to 96-well tissue culture plates, followed by incubation at 37° C. for 60 minutes to allow polymerization. […] Capillary tube formation assessed by using a Leica DMIL phase contrast microscope.
An experiment was performed to determine whether angiogenic tubule formation could be inhibited by the disclosed compounds.

[4] = molecular target: T1, Rb:Raf-1 binding (Homo sapiens, UniProt P04049+P06400); assay: GST-Rb/GST-Raf-1 ELISA; settings: for IC50: IC50 (nM), inhibition of the Rb:Raf-1 binding, concentration that inhibits the Rb:Raf-1 binding by 50%, triplicate; for inhibition at 20 µM: read-out: % Inhibition at 20 μM, inhibition of Rb:Raf-1 binding, compound at 20 μM
T1 construct: a glutathione S-transferase (GST) Raf-1 (1-149aa) overnight at 4° C; made in house
Experimental: In vitro library screening assays. Enzyme Linked ImmunoSorbent Assay (ELISA) 96-well plates were coated with 1 μg/mL of a glutathione S-transferase (GST) Raf-1 (1-149aa) overnight at 4° C. Subsequently the plates were blocked and GST Rb at 20 μg/mL was rotated at room temperature (RT) for 30 minutes in the presence or absence of the compounds at 20 micromolar (μM). GST-Rb +/− compounds were then added to the plate and incubated for 90 minutes (min) at 37° C. The amount of Rb bound to Raf-1 was detected by Rb polyclonal antibody (Santa Cruz Biotechnology, Santa Cruz, Calif.) 1:1000 incubated for 60 min at 37° C. Donkey-anti-rabbit-IgG-HRP (1:10,000) was added to the plate and incubated at 37° C. for 60 minutes. The color was developed with orthophenylenediamine (Sigma, St. Louis, Mo.) and the reaction was terminated with 3 molar (M) H2SO4. Absorbance was read at 490 nanometers (nm). To determine disruption of Rb to E2F1, Phb, or HDAC1 the above protocol was used with the exception of coating GST Rb on the ELISA plate and adding the drugs in the presence or absence of GST E2F1, Phb, or HDAC1. […] Prohibitin monoclonal antibody was used at 1:1000 to detect the amount of Rb bound to Prohibitin. For disruption of MEK-Raf-1 binding ELISAs, Raf-1 1 microgram/milliliter (μg/mL) was coated on the plate and GST-MEK (20 μg/mL) was incubated +/− the compounds for 30 minutes at room temperature. Mek1 polyclonal antibody was used at 1:1000 to detect the binding of Raf-1 to Mek1. The IC50 concentrations for the Rb:Raf-1 inhibitors were determined by plotting with Origin 7.5 software (Origin, Northampton, Mass.).
A screen was developed to identify small molecule inhibitors of the Rb:Raf-1 interaction. A diversity set, comprising 1981 compounds (National Cancer Institute, Bethesda, Md.) was examined using a glutathione S-transferase-retinoblastoma/glutathione S-transferase-Raf-1 kinase Enzyme-Linked ImmunoSorbent Assay screen (GST-Rb/GST-Raf-1 ELISA).

[5] = molecular target: T2, Rb-E2F1 (Homo sapiens, UniProt P06400+Q01094); assay: GST ELISA, Rb-E2F1 binding; settings: 20 μM
T2 construct: made in house
Excerpt: In vitro library screening assays. […] Absorbance was read at 490 nanometers (nm).

Chain of binding of Raf-1 to GST Rb beads (P06400 whole entry): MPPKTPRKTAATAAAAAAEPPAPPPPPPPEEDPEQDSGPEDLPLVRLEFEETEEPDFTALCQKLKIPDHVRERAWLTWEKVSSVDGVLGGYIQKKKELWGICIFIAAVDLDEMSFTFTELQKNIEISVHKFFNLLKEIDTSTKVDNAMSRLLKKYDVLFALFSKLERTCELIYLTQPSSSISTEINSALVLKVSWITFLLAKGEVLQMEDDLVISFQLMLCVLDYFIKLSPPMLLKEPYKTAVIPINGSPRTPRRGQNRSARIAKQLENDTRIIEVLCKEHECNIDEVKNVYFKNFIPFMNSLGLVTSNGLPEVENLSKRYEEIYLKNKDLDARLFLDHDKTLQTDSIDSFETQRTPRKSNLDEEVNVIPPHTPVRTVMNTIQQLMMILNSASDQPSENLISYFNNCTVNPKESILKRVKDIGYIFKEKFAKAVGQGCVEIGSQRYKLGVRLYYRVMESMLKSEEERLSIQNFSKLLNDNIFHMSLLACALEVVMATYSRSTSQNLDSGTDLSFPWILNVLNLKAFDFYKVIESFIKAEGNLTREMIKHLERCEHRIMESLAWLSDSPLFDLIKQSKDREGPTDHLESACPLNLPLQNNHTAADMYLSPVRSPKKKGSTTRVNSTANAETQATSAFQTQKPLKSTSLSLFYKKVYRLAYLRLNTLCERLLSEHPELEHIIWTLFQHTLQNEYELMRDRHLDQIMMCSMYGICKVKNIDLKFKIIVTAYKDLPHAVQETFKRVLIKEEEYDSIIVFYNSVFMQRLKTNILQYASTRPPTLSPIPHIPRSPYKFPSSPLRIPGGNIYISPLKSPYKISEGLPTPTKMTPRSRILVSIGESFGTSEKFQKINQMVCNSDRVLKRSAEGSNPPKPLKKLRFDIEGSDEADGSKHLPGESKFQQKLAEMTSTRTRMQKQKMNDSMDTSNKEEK
Chain of binding of Raf-1 to GST Rb beads (P04049 whole entry): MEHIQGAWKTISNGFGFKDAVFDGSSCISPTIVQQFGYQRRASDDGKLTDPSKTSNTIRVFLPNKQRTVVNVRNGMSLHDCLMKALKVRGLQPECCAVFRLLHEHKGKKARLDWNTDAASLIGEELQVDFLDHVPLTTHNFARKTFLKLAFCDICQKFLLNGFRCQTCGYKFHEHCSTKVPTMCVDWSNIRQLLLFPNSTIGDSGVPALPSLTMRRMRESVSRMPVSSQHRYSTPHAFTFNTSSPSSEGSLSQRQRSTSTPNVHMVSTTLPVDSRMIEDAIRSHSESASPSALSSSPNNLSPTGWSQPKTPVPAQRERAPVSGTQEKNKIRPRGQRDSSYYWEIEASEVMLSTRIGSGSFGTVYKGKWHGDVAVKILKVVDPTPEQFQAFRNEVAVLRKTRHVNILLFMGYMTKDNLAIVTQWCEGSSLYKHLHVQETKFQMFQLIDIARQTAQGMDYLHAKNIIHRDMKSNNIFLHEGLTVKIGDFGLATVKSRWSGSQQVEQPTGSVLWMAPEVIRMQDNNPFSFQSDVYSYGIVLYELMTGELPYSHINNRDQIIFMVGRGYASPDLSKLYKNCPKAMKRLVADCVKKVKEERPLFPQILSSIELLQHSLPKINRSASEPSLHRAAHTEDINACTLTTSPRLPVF
T1 sequence (P04049 1-149 limits assumed): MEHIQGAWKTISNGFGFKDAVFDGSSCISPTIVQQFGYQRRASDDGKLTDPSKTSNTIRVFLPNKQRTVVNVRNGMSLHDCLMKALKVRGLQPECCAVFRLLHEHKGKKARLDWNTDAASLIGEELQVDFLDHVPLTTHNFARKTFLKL
T1 sequence (P06400 whole entry): as the sequence (P06400 whole entry) above
Chain of binding of Raf-1 to Rb in U937 cells (P06400 whole entry): as above
Chain of binding of Raf-1 to Rb in U937 cells (P04049 whole entry): as the sequence (P04049 whole entry) above
T2 sequence (P06400 whole entry): as the sequence (P06400 whole entry) above
T2 sequence (Q01094 whole entry): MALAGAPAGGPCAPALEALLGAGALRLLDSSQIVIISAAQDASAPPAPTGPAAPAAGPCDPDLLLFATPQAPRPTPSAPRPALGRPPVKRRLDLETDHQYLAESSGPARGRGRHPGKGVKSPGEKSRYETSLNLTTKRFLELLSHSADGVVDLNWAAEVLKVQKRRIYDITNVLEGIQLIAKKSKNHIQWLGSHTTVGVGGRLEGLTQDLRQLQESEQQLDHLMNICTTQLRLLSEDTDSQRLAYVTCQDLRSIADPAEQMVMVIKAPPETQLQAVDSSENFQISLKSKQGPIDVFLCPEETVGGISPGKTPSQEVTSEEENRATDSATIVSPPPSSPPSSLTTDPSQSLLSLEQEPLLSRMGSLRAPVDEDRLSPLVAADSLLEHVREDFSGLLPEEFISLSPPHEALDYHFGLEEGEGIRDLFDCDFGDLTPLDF

Row | SMILES | binding of Raf-1 to Rb in intact cells [1] | binding of Raf-1 to GST Rb beads [2] | angiogenic tubule formation in matrigel [3] | IC50 [4] | inhibition at 20 µM [4] | inhibition of Rb-E2F1 binding / selectivity in words [5]
1 | N=C(N)SCc1ccc(Cl)cc1Cl [(1), 2,4-dichlorobenzyl carbamimidothioate] | inhibited the binding of Raf-1 to Rb significantly | inhibited the binding of GST Rb beads to endogenous Raf-1 | inhibit angiogenic tubule formation; also recorded: significantly inhibited the angiogenic tubule formation | 81 ± 4 nM | 100% | –
2 | N=C(N)SCc1ccc(Cl)c2ccccc12 [(2), (4-chloronaphthalen-1-yl)methyl carbamimidothioate] | inhibited the binding of Raf-1 to Rb significantly | inhibited the binding of GST Rb beads to endogenous Raf-1 | inhibit angiogenic tubule formation; also recorded: significantly inhibited the angiogenic tubule formation | 283 ± 46 nM | 95% | selective for inhibiting Rb:Raf-1 and not Rb-E2F1 binding

Reference: patent publication US9656953B2, “Inhibition of cell proliferation” (University of South Florida, priority 2005, dated 2017)
